Data reported in patent US12678424B2, “Method for preventing and/or treating systemic inflammation” (THE BOARD OF TRUSTEES OF THE LELAND STANFORD JUNIOR …, priority 2015, dated 2026).

Tests used:
Format in all cases: in vivo, mice (C57BL6)
[1] = tested on: microglia; test: Flow cytometry of brain microglia for Slc2al expression and 2-NBDG glucose uptake in older mice; settings: 25 mg/kg oral 3 times a week for 15 weeks from 37 weeks of age, vs vehicle-treated older mice, p<0.05
Method: All animal studies were conducted under protocols approved by APLAC from Stanford University. Older and young animals on C57BL6 background were purchased from Taconic. Older animals are defined as those above 36 weeks of age, when physiological aging process accelerates in mice, while young counterparts are 20 weeks of age. Data are presented as mean±SEM. Two-tailed Student's t-test and two-way ANOVA were used for statistical analyses. A p value of <0.05 is considered to be statistically significant. Older animals were orally treated 3 times a week for 15 weeks with 0.5% methylcellulose (vehicle) or ZLN005 (Sigma) at 25 mg/kg in vehicle, starting at 37 weeks of age. Treated older animals (n=6), non-treated older animals (n=6), and young animals (20 weeks old, n=6) were sacrificed after drug treatment and their brain tissues collected. PBS-perfused brain tissues of sacrificed animals were digested with Collagenase I and processed for flow cytometry (Ginhoux et al Science, 330:841-5, 2010). Brain microglia were phenotyped with 2-NBDG (2-(N-(7-nitrobenz-2-oxa-1,3-diazol-4-yl)amino)-2-deoxyglucose, Invitrogen) and anti-Slc2al antibody (RnD) for flow cytometric acquisition (LSRII, BD) and analysis (FlowJo). The results are summarized in FIG. 1: Y-axis represents % of microglia that either express glucose transporter Slc2al or have taken up glucose fluorescent analog 2-NBDG. […]

[2] = Marble burying assay in older mice; settings: older mice at 52 weeks of age, 25 mg/kg oral 3 times a week for 15 weeks, 12 marbles, 30 minutes, vs vehicle-treated older mice, p<0.05
Method: All animal studies were conducted under protocols approved by APLAC from Stanford University. Older and young animals on C57BL6 background were purchased from Taconic. Older animals are defined as those above 36 weeks of age, when physiological aging process accelerates in mice, while young counterparts are 20 weeks of age. Data are presented as mean±SEM. Two-tailed Student's t-test and two-way ANOVA were used for statistical analyses. A p value of <0.05 is considered to be statistically significant.
Animals were orally treated 3 times a week for 15 weeks with 0.5% methylcellulose (vehicle) or ZLN005 (Sigma) at 25 mg/kg in vehicle, starting at 37 weeks of age. At 52 weeks of age, the older animals were subjected to a marble burying assay, a behavioral test of anxiety (Dekeyne A. Therapie. 60:477-84.2005). Each animal was given 12 marbles on top of bedding in individual cage and allowed to run free in the cage for 30 minutes. After this period of time, each buried marble was individually assigned a number based on its degree of being buried (1=90-100% hidden, 0.75=60-90% hidden, 0.5=30-60% hidden, 0=below 30% hidden), and then the sum of the numbers of 12 marbles buried by each mouse is calculated as the marble burying score of the mouse. […] Unpaired t-test was used for statistical analysis.

[3] = tested on: microglia; test: Flow cytometry of brain microglia for CCL2 and TNF-α production in older mice; settings: 25 mg/kg oral 3 times a week for 15 weeks from 37 weeks of age, vs vehicle-treated older mice
Method: (§1) All animal studies were conducted under protocols approved by APLAC from Stanford University. Older and young animals on C57BL6 background were purchased from Taconic. Older animals are defined as those above 36 weeks of age, when physiological aging process accelerates in mice, while young counterparts are 20 weeks of age. Data are presented as mean±SEM. Two-tailed Student's t-test and two-way ANOVA were used for statistical analyses. A p value of <0.05 is considered to be statistically significant. Older animals were orally treated 3 times a week for 15 weeks with 0.5% methylcellulose (vehicle) or ZLN005 (Sigma) at 25 mg/kg in vehicle, starting at 37 weeks of age. Treated older animals (n=6), non-treated older animals or aged animals (n=6), and young animals (20 weeks old, n=6) were sacrificed after drug treatment and their brain tissues were collected. PBS-perfused brain tissues of sacrificed animals were digested with Collagenase I and processed for flow cytometry (Ginhoux et al Science. 330:841-5.2010). Brain microglia were phenotyped with fluorochrome-labeled antibodies to CCL2 and TNF-α (Biolegend) for flow cytometric acquisition (LSRII. BD) and analysis (FlowJo). The results are summarized in FIG. 2: Y-axis represents % of microglia that express CCL2 or TNF-α. ANOVA was used for statistical analysis. […]

[4] = tested on: TNF-α; test: Serum TNF-α by ELISA in older mice (systemic inflammation); settings: 25 mg/kg oral 3 times a week for 15 weeks, vs vehicle-treated older mice, p<0.05
Method: as §1, with “TNF-α levels” for “The results are summarized”, “serum” for “FIG. 2: Y-axis represents %”, “young mice, vehicle-treated older mice, and ZLN-treated older mice (from Example 2) were measured by ELISA to determine TNF-α levels which indicated systemic inflammation.” for “microglia that express CCL2 or TNF-α. ANOVA was used for statistical analysis.”

CC(C)(C)c1ccc(-c2nc3ccccc3[nH]2)cc1 [ZLN005, 2-(4-tert-Butylphenyl)-1H-benzimidazole]
reduced the anxiety phenotype: marble burying score [2]
decreased: % of microglia that express glucose transporter Slc2al [1] | % of microglia that have taken up glucose fluorescent analog 2-NBDG (glucose uptake) [1] | % of microglia that express CCL2 ([3]; p<0.01) | % of microglia that express TNF-α ([3]; p<0.05) | concentration of TNF-α in serum [4]
